Laboratory results as given in US9174994B2, “Enhanced treatment regimens using mTor inhibitors” (INTELLIKINE LLC, priority 2011, dated 2015).

Test: Additional study: grade 3 or greater treatment-emergent adverse events
Type: in vivo, human

**Q.** Which “Grade 3 or greater TEAE: Anaemia” value (QD Dosing (N = 29)) does the source give for `CC(C)n1nc(-c2ccc3oc(N)nc3c2)c2c(N)ncnc21` [compound A] here?
**A.** 1 (3%)

**Q.** And the “Grade 3 or greater TEAE: Aspartate aminotransferase increase” value (QD Dosing (N = 29))?
**A.** 0 (0%)

**Q.** What about the “Grade 3 or greater TEAE: Asthenia” value (QD Dosing (N = 29)) of the same compound?
**A.** 1 (3%)

**Q.** What about the “Grade 3 or greater TEAE: Blood creatinine increase” value (QD Dosing (N = 29)) of the same compound?
**A.** 0 (0%)

**Q.** And the “Grade 3 or greater TEAE: Deep vein thrombosis” value (QD Dosing (N = 29))?
**A.** 0 (0%)

**Q.** And the “Grade 3 or greater TEAE: Diarrhoea” value (QD Dosing (N = 29))?
**A.** 1 (3%)

**Q.** And the “Grade 3 or greater TEAE: Disease progression” value (QD Dosing (N = 29))?
**A.** 0 (0%)

**Q.** What about the “Grade 3 or greater TEAE: Fatigue” value (QD Dosing (N = 29)) of the same compound?
**A.** 0 (0%)

**Q.** What about the “Grade 3 or greater TEAE: Gamma-glutamyltransferase increase” value (QD Dosing (N = 29)) of the same compound?
**A.** 0 (0%)

**Q.** What about the “Grade 3 or greater TEAE: Hyperglycaemia” value (QD Dosing (N = 29)) of the same compound?
**A.** 4 (14%)

**Q.** And the “Grade 3 or greater TEAE: Hypokalaemia” value (QD Dosing (N = 29))?
**A.** 2 (7%)

**Q.** What about the “Grade 3 or greater TEAE: Hyponatraemia” value (QD Dosing (N = 29)) of the same compound?
**A.** 2 (7%)

**Q.** What about the “Grade 3 or greater TEAE: Hypophsphataemia” value (QD Dosing (N = 29)) of the same compound?
**A.** 0 (0%)

**Q.** What about the “Grade 3 or greater TEAE: Lymphopenia” value (QD Dosing (N = 29)) of the same compound?
**A.** 2 (7%)

**Q.** What about the “Grade 3 or greater TEAE: Mucosal Inflammation” value (QD Dosing (N = 29)) of the same compound?
**A.** 0 (0%)

**Q.** What about the “Grade 3 or greater TEAE: Muscular weakness” value (QD Dosing (N = 29)) of the same compound?
**A.** 0 (0%)

**Q.** And the “Grade 3 or greater TEAE: Nausea” value (QD Dosing (N = 29))?
**A.** 0 (0%)

**Q.** And the “Grade 3 or greater TEAE: Neutropenia” value (QD Dosing (N = 29))?
**A.** 0 (0%)

**Q.** What about the “Grade 3 or greater TEAE: Pruritus” value (QD Dosing (N = 29)) of the same compound?
**A.** 2 (7%)

**Q.** What about the “Grade 3 or greater TEAE: Rash” value (QD Dosing (N = 29)) of the same compound?
**A.** 7 (24%)

**Q.** What about the “Grade 3 or greater TEAE: Thrombocytopenia” value (QD Dosing (N = 29)) of the same compound?
**A.** 2 (7%)

**Q.** What about the “Grade 3 or greater TEAE: Vomiting” value (QD Dosing (N = 29)) of the same compound?
**A.** 0 (0%)

**Q.** And the “Patients Reporting at least one Grade 3 or greater TEAE” value (QD Dosing (N = 29))?
**A.** 17 (59%)

**Q.** What about the “Grade 3 or greater TEAE: Anaemia” value (QDx3d QW (N = 25)) of the same compound?
**A.** 2 (8%)

**Q.** What about the “Grade 3 or greater TEAE: Aspartate aminotransferase increase” value (QDx3d QW (N = 25)) of the same compound?
**A.** 0 (0%)

**Q.** And the “Grade 3 or greater TEAE: Asthenia” value (QDx3d QW (N = 25))?
**A.** 1 (4%)

**Q.** And the “Grade 3 or greater TEAE: Blood creatinine increase” value (QDx3d QW (N = 25))?
**A.** 2 (8%)

**Q.** What about the “Grade 3 or greater TEAE: Deep vein thrombosis” value (QDx3d QW (N = 25)) of the same compound?
**A.** 1 (4%)

**Q.** What about the “Grade 3 or greater TEAE: Diarrhoea” value (QDx3d QW (N = 25)) of the same compound?
**A.** 1 (4%)

**Q.** And the “Grade 3 or greater TEAE: Disease progression” value (QDx3d QW (N = 25))?
**A.** 0 (0%)

**Q.** And the “Grade 3 or greater TEAE: Fatigue” value (QDx3d QW (N = 25))?
**A.** 0 (0%)

**Q.** And the “Grade 3 or greater TEAE: Gamma-glutamyltransferase increase” value (QDx3d QW (N = 25))?
**A.** 1 (4%)

**Q.** And the “Grade 3 or greater TEAE: Hyperglycaemia” value (QDx3d QW (N = 25))?
**A.** 4 (16%)

**Q.** What about the “Grade 3 or greater TEAE: Hypokalaemia” value (QDx3d QW (N = 25)) of the same compound?
**A.** 0 (0%)

**Q.** What about the “Grade 3 or greater TEAE: Hyponatraemia” value (QDx3d QW (N = 25)) of the same compound?
**A.** 0 (0%)

**Q.** What about the “Grade 3 or greater TEAE: Hypophsphataemia” value (QDx3d QW (N = 25)) of the same compound?
**A.** 3 (12%)

**Q.** What about the “Grade 3 or greater TEAE: Lymphopenia” value (QDx3d QW (N = 25)) of the same compound?
**A.** 2 (8%)

**Q.** What about the “Grade 3 or greater TEAE: Mucosal Inflammation” value (QDx3d QW (N = 25)) of the same compound?
**A.** 4 (16%)

**Q.** What about the “Grade 3 or greater TEAE: Muscular weakness” value (QDx3d QW (N = 25)) of the same compound?
**A.** 1 (4%)

**Q.** What about the “Grade 3 or greater TEAE: Nausea” value (QDx3d QW (N = 25)) of the same compound?
**A.** 1 (4%)

**Q.** What about the “Grade 3 or greater TEAE: Neutropenia” value (QDx3d QW (N = 25)) of the same compound?
**A.** 0 (0%)

**Q.** What about the “Grade 3 or greater TEAE: Pruritus” value (QDx3d QW (N = 25)) of the same compound?
**A.** 1 (4%)

**Q.** What about the “Grade 3 or greater TEAE: Rash” value (QDx3d QW (N = 25)) of the same compound?
**A.** 1 (4%)

**Q.** And the “Grade 3 or greater TEAE: Thrombocytopenia” value (QDx3d QW (N = 25))?
**A.** 0 (0%)

**Q.** And the “Grade 3 or greater TEAE: Vomiting” value (QDx3d QW (N = 25))?
**A.** 1 (4%)

**Q.** And the “Patients Reporting at least one Grade 3 or greater TEAE” value (QDx3d QW (N = 25))?
**A.** 18 (72%)

**Q.** And the “Grade 3 or greater TEAE: Anaemia” value (QDx5d QW (N = 15))?
**A.** 1 (7%)

**Q.** And the “Grade 3 or greater TEAE: Aspartate aminotransferase increase” value (QDx5d QW (N = 15))?
**A.** 1 (7%)

**Q.** What about the “Grade 3 or greater TEAE: Asthenia” value (QDx5d QW (N = 15)) of the same compound?
**A.** 1 (7%)

**Q.** What about the “Grade 3 or greater TEAE: Blood creatinine increase” value (QDx5d QW (N = 15)) of the same compound?
**A.** 0 (0%)

**Q.** And the “Grade 3 or greater TEAE: Deep vein thrombosis” value (QDx5d QW (N = 15))?
**A.** 0 (0%)

**Q.** What about the “Grade 3 or greater TEAE: Diarrhoea” value (QDx5d QW (N = 15)) of the same compound?
**A.** 0 (0%)

**Q.** What about the “Grade 3 or greater TEAE: Disease progression” value (QDx5d QW (N = 15)) of the same compound?
**A.** 0 (0%)

**Q.** What about the “Grade 3 or greater TEAE: Fatigue” value (QDx5d QW (N = 15)) of the same compound?
**A.** 2 (13%)

**Q.** What about the “Grade 3 or greater TEAE: Gamma-glutamyltransferase increase” value (QDx5d QW (N = 15)) of the same compound?
**A.** 1 (7%)

**Q.** And the “Grade 3 or greater TEAE: Hyperglycaemia” value (QDx5d QW (N = 15))?
**A.** 1 (7%)

**Q.** And the “Grade 3 or greater TEAE: Hypokalaemia” value (QDx5d QW (N = 15))?
**A.** 0 (0%)

**Q.** What about the “Grade 3 or greater TEAE: Hyponatraemia” value (QDx5d QW (N = 15)) of the same compound?
**A.** 0 (0%)

**Q.** And the “Grade 3 or greater TEAE: Hypophsphataemia” value (QDx5d QW (N = 15))?
**A.** 2 (13%)

**Q.** And the “Grade 3 or greater TEAE: Lymphopenia” value (QDx5d QW (N = 15))?
**A.** 1 (7%)

**Q.** And the “Grade 3 or greater TEAE: Mucosal Inflammation” value (QDx5d QW (N = 15))?
**A.** 3 (20%)
